Literature values in patent US20090285878A1, “Compositions and methods for stabilizing liposomal drug formulations” (Tekmira Pharmaceuticals Corporation, priority 2004, published 2009).

Lactone hydrolyzed (above pH 9): more than 95%
Open (carboxylate) form of lactone ring (below pH 4): no open form is present
SMILES: CC[C@@]1(O)C(=O)OCc2c1cc1n(c2=O)Cc2cc3c(CN(C)C)c(O)ccc3nc2-1 [Topotecan]
